The text below walks through data of US10457654B2 (GENENTECH, INC., priority 2017, dated 2019).

Assay [1] has as its target T1, hNav1.7 (Homo sapiens (Human), UniProt Q15858). Nature of the assay: Tritiated compound binding to membranes from cells expressing hNav1.7 and the β1 subunit, modified protocol (LBA, Ex. 243B). The settings on record: 300 pM [3H]compound, room temperature, read-out: Nav1.7 LBA (Ex. 243B) IC50.
Target sequence in this assay (Q15858 whole entry, looked up): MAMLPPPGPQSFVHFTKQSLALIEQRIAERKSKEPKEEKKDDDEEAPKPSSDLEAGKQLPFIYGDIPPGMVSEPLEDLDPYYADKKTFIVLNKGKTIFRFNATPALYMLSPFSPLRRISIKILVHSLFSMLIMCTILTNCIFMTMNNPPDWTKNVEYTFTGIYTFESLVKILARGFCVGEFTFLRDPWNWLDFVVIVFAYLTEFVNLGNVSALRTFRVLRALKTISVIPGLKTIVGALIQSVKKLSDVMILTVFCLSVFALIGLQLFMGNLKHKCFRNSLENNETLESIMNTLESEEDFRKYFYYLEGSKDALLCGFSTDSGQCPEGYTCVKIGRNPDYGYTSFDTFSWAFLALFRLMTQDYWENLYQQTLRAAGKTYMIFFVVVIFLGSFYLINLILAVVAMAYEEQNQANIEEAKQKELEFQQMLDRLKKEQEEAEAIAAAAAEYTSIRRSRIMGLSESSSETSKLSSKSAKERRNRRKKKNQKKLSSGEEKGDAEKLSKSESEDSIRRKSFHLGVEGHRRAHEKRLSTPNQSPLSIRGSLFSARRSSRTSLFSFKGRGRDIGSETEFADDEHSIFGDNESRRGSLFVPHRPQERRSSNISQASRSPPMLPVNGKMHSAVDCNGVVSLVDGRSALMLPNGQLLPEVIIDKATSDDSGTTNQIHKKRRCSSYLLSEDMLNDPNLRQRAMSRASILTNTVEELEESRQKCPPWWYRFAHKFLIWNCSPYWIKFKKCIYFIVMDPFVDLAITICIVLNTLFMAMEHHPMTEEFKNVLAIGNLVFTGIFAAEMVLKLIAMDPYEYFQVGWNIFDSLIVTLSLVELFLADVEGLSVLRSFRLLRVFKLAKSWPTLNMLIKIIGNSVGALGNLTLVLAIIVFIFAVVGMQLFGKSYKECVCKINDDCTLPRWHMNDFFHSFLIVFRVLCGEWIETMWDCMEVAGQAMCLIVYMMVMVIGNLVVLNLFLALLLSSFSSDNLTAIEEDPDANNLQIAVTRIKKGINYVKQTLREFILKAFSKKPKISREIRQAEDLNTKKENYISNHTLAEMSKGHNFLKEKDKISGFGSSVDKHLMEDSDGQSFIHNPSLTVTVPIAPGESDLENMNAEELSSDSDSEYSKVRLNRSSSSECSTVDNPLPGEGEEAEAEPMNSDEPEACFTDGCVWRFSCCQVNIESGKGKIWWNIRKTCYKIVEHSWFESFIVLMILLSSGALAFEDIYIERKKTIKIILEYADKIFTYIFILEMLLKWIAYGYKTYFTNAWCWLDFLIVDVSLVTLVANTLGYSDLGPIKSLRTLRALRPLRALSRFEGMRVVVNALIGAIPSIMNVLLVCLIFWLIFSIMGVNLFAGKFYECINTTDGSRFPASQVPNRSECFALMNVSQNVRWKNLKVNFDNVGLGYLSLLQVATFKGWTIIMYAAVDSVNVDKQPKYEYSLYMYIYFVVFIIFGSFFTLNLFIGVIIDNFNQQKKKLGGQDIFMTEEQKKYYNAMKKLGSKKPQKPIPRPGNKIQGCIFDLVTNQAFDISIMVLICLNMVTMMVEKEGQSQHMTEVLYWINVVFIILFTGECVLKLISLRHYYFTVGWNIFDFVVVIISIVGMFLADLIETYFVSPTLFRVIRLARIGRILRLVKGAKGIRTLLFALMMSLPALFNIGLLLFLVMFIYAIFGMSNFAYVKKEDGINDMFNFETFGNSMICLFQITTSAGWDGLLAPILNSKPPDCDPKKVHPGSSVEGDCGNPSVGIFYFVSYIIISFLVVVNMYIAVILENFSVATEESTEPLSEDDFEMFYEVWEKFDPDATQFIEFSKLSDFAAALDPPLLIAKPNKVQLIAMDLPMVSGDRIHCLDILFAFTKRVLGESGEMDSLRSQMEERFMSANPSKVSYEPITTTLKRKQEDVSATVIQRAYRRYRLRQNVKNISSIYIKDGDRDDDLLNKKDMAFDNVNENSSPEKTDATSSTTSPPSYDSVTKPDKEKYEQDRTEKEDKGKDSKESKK
Target sequence in this assay (Q07699 whole entry partner, looked up): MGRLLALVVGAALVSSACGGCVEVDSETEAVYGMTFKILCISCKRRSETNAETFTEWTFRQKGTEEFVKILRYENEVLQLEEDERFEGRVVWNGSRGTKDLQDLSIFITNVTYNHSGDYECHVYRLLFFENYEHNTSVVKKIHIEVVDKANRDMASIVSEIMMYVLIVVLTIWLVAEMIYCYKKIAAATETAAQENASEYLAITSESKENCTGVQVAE
Assay [2] concerns the target T1, hNav1.7. In words: Patch voltage clamp electrophysiology assay (EP), Syncropatch 384PE, CHO cells expressing Nav1.7. It counts as cell-based. The conditions noted are these: holding potential -50 mV; […] compound incubation; read-out: EP_SP hNav1.7 (Ex. 243B) IC50. In outline:
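Automated whole-cell patch clamp on CHO cells stably expressing human Nav1.7, CsCl/EGTA internal and NMDG/80 mM Na+ external (pH 7.4). From −50 mV holding, −10 mV step, 20 ms recovery at −150 mV, then second −10 mV pulse where block is measured; inhibition after 7.5 min compound incubation.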
Target sequence in this assay (Q15858 other isoform, or with tags, fused parts or gaps): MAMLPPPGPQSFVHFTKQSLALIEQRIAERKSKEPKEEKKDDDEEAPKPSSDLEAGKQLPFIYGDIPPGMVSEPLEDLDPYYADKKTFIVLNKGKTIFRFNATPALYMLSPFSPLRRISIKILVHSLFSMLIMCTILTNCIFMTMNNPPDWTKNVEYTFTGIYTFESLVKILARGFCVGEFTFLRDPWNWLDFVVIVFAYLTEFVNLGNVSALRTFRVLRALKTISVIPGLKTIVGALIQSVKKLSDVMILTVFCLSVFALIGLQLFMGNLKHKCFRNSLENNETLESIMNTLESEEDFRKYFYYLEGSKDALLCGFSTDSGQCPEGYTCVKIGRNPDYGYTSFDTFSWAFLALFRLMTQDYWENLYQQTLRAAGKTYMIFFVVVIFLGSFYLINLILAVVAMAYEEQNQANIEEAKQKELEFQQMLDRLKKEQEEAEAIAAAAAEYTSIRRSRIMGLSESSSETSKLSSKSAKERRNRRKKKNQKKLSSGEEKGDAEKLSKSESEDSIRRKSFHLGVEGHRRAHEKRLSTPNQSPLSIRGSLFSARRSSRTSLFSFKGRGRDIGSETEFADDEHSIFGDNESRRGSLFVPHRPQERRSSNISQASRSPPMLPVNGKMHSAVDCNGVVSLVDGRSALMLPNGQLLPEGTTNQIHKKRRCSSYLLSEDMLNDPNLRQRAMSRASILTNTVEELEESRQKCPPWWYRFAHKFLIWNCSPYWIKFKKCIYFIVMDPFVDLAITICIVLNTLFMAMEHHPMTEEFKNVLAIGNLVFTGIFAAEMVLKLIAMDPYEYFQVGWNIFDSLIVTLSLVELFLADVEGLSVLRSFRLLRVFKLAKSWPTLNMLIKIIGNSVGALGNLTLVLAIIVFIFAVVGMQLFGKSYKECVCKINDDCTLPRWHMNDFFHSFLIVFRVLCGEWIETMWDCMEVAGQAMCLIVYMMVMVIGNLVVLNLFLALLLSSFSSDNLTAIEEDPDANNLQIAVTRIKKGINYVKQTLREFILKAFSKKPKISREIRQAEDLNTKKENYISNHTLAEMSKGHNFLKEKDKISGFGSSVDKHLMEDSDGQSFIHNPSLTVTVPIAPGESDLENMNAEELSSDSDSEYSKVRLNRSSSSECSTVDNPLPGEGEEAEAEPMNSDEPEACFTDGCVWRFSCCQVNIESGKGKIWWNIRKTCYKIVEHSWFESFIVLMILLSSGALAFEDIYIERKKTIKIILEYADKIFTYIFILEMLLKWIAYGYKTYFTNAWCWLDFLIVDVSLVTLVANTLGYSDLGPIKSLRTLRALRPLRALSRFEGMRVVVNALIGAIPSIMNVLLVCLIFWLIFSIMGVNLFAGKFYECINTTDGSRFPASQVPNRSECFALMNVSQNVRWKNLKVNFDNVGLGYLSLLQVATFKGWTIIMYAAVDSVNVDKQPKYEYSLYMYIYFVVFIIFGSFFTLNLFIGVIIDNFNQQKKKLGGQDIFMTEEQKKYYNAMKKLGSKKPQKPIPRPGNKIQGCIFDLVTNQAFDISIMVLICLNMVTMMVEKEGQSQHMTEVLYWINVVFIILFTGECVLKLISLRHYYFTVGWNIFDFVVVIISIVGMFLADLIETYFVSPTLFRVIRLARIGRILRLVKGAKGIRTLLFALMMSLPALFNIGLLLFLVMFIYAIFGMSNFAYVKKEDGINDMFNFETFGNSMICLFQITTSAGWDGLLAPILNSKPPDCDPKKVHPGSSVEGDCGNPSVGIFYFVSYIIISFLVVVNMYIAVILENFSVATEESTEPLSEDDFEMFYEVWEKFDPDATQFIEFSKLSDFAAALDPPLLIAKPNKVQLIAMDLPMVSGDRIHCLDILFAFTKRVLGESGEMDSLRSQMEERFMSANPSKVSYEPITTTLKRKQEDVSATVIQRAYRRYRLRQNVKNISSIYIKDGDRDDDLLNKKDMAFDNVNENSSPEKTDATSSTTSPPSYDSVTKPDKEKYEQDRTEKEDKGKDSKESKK

The structures appear in SMILES notation. Where a name gives a salt, the structure may show the parent alone.

With `O=S(=O)(Nc1nccs1)c1cc(Cl)c(N[C@H]2CCCC[C@@H]2N2CCC[C@@](F)(CO)C2)cc1F` [Example 213, 5-Chloro-2-fluoro-4-(((1S,2S)-2-((S)-3-fluoro-3-(hydroxymethyl)piperidin-1-yl)cyclohexyl)amino)-N-(thiazol-2-yl)benzenesulfonamide], the concentration for half-maximal inhibition (IC50) – broadly, the concentration that inhibits the measured activity by half – in assay [1] was found to be 218 nM; in assay [2] it was 13.9 nM.

Turning to `CN(C)[C@@H]1C[C@H]2C[C@H]2C[C@H]1Nc1cc(F)c(S(=O)(=O)Nc2nccs2)cc1Cl` [Example 217, 5-Chloro-4-(((1S,3R,4R,6R)-4-(dimethylamino)bicyclo[4.1.0]heptan-3-yl)amino)-2-fluoro-N-(thiazol-2-yl)benzenesulfonamide], the IC50 in assay [1] turned out to be 1190 nM; in assay [2], 112 nM.

For `CC(C)C(=O)N1CC(N(C)[C@H]2CCCC[C@@H]2Nc2cc(F)c(S(=O)(=O)Nc3nccs3)cc2Cl)C1` [Example 146, 5-Chloro-2-fluoro-4-(((1S,2S)-2-((1-isobutyrylazetidin-3-yl)(methyl)amino)cyclohexyl)amino)-N-(thiazol-2-yl)benzenesulfonamide], the IC50 in assay [1] came out at 154 nM; in assay [2], 15.4 nM.

On to `CN(C)[C@H]1C[C@@H](c2cccc(C(F)(F)F)c2)CC[C@@H]1Oc1cc(F)c(S(=O)(=O)Nc2ccncn2)cc1Cl` [Example 238, 5-chloro-4-(((1S,2S,4S)-2-(dimethylamino)-4-(3-(trifluoromethyl)phenyl)cyclohexyl)oxy)-2-fluoro-N-(pyrimidin-4-yl)benzenesulfonamide], for which the IC50 turned out to be 5.54 nM in assay [1] and 1.17 nM in assay [2].

Consider `CN(C)[C@@H]1CN(c2cccc(C(F)(F)F)c2)CC[C@H]1Nc1cc(F)c(S(=O)(=O)Nc2ccncn2)cc1Cl` [Example 234, 5-Chloro-4-(((3R,4R)-3-(dimethylamino)-1-(3-(trifluoromethyl)phenyl)piperidin-4-yl)amino)-2-fluoro-N-(pyrimidin-4-yl)benzenesulfonamide formate], for which the IC50 in assay [1] stood at 2000 nM; in assay [2], 131 nM.

As to `O=S(=O)(Nc1ccncn1)c1cc(Cl)c(N[C@H]2CCCC[C@@H]2N2CCC[C@](F)(CO)C2)cc1F` [Example 221, 5-Chloro-2-fluoro-4-(((1S,2S)-2-((R)-3-fluoro-3-(hydroxymethyl)piperidin-1-yl)cyclohexyl)amino)-N-(pyrimidin-4-yl)benzenesulfonamide], the results for the IC50 in assay [1] and in assay [2] were 298 nM and 62.9 nM, respectively.

With `CN(C)[C@H]1C[C@H]2[C@@H](C[C@@H]1Nc1cc(F)c(S(=O)(=O)Nc3nccs3)cc1Cl)C2(Cl)Cl` [Example 196, 5-Chloro-4-(((1R,3S,4S,6S)-7,7-dichloro-4-(dimethylamino)bicyclo[4.1.0]heptan-3-yl)amino)-2-fluoro-N-(thiazol-2-yl)benzenesulfonamide formate], the IC50 turned out to be 664 nM in assay [1] and 120 nM in assay [2].

In the case of `CN(C)[C@H]1C[C@@H]2[C@H](C[C@@H]1Nc1cc(F)c(S(=O)(=O)Nc3nccs3)cc1Cl)C2(Cl)Cl` [Example 194, 5-Chloro-4-(((1S,3S,4S,6R)-7,7-dichloro-4-(dimethylamino)bicyclo[4.1.0]heptan-3-yl)amino)-2-fluoro-N-(thiazol-2-yl)benzenesulfonamide formate], the values for the half-maximal inhibitory concentration (IC50) in assay [1] and in assay [2] were 2000 nM and 400 nM, respectively.

As for `CN(C)[C@@H]1CC2C(C[C@H]1Nc1cc(F)c(S(=O)(=O)Nc3nccs3)cc1Cl)C2(F)F` (stereo in doubt) [Example 208, 5-Chloro-4-(((1R,3R,4R,6S)-4-(dimethylamino)-7,7-difluorobicyclo[4.1.0]heptan-3-yl)amino)-2-fluoro-N-(thiazol-2-yl)benzenesulfonamide], the IC50 in assay [1] came out at 46.7 nM; in assay [2], 6.12 nM.

Regarding `O=S(=O)(Nc1nccs1)c1cc(Cl)c(N[C@H]2CCCC[C@@H]2N2CCC[C@H](O)C2)cc1F` [Example 153, 5-chloro-2-fluoro-4-(((1S,2S)-2-((S)-3-hydroxypiperidin-1-yl)cyclohexyl)amino)-N-(thiazol-2-yl)benzenesulfonamide], the results for the IC50 in assay [1] and in assay [2] were 17.1 nM and 4.07 nM, respectively.

Turning to `CN(C)[C@@H]1C[C@@H]2[C@H](C[C@H]1Nc1cc(F)c(S(=O)(=O)Nc3nccs3)cc1Cl)C2(Cl)Cl` [Example 195, 5-Chloro-4-(((1S,3R,4R,6R)-7,7-dichloro-4-(dimethylamino)bicyclo[4.1.0]heptan-3-yl)amino)-2-fluoro-N-(thiazol-2-yl)benzenesulfonamide formate], the IC50 in assay [1] was 8.11 nM; in assay [2], 1.4 nM.

In the case of `CN(C)[C@@H]1CC2C(C[C@H]1Nc1cc(F)c(S(=O)(=O)Nc3nccs3)cc1Cl)C2(F)F` (stereo in doubt) [Example 210, 5-Chloro-4-(((1S,3R,4R,6R)-4-(dimethylamino)-7,7-difluorobicyclo[4.1.0]heptan-3-yl)amino)-2-fluoro-N-(thiazol-2-yl)benzenesulfonamide], the IC50 was 2000 nM in assay [1] and 415 nM in assay [2].

In the case of `O=S(=O)(Nc1ccncn1)c1cc(Cl)c(N[C@H]2CCCC[C@@H]2N2CC3C(C2)C3(F)F)cc1F` (stereo partly drawn) [Example 183, 5-chloro-4-(((1S,2S)-2-(6,6-difluoro-3-azabicyclo[3.1.0]hexan-3-yl)cyclohexyl)amino)-2-fluoro-N-(pyrimidin-4-yl)benzenesulfonamide], the results for the IC50 in assay [1] and in assay [2] were 277 nM and 12 nM, respectively.

Consider `O=S(=O)(Nc1cccc(F)n1)c1cc(Cl)c(N[C@H]2CCCC[C@@H]2N2CCCCC2)cc1F` [Example 123, 5-chloro-2-fluoro-N-(6-fluoropyridin-2-yl)-4-(((1S,2S)-2-(piperidin-1-yl)cyclohexyl)amino)benzenesulfonamide], for which the values for the IC50 in assay [1] and in assay [2] were 17.5 nM and 4.54 nM, respectively.

As to `CN(C)[C@H]1C[C@@H](c2cccc(Cl)c2)CC[C@@H]1Nc1cc(F)c(S(=O)(=O)Nc2ccncn2)cc1Cl` [Example 231, 5-Chloro-4-(((1S,2S,4S)-4-(3-chlorophenyl)-2-(dimethylamino)cyclohexyl)amino)-2-fluoro-N-(pyrimidin-4-yl)benzenesulfonamide formate], the results for the IC50 in assay [1] and in assay [2] were 2.22 nM and 0.933 nM, respectively.

Turning to `CN(C)[C@H]1CCC(c2ccccc2F)C[C@@H]1Nc1cc(F)c(S(=O)(=O)Nc2nccs2)cc1Cl` (stereo in doubt) [Example 173, 5-chloro-4-(((1S,2S,5R)-2-(dimethylamino)-5-(2-fluorophenyl)cyclohexyl)amino)-2-fluoro-N-(thiazol-2-yl)benzenesulfonamide], the IC50 in assay [1] amounted to 17.7 nM; in assay [2] it was 2.6 nM.

Take `CN(C)[C@H]1CC2C(C[C@@H]1Nc1cc(F)c(S(=O)(=O)Nc3nccs3)cc1Cl)C2(F)F` (stereo in doubt) [Example 209, 5-Chloro-4-(((1R,3S,4S,6S)-4-(dimethylamino)-7,7-difluorobicyclo[4.1.0]heptan-3-yl)amino)-2-fluoro-N-(thiazol-2-yl)benzenesulfonamide]: the IC50 in assay [1] came out at 160 nM; in assay [2] it was 9.25 nM.

As for `CN(C)[C@H]1CCCC[C@@H]1N1CCOc2cc(S(=O)(=O)Nc3nccs3)c(F)cc21` [Example 132, 4-((1 S,2S)-2-(dimethylamino)cyclohexyl)-6-fluoro-N-(thiazol-2-yl)-3,4-dihydro-2H-benzo[b][1,4]oxazine-7-sulfonamide], the IC50 in assay [1] came to 306 nM; in assay [2] it was 14 nM.
